According to PMC12388506, “Preclinical Evaluation of 2-Aminobenzothiazole Derivatives: In Silico, In Vitro, and Preliminary In Vivo Studies as Diabetic Treatments and Their Complications” (Molecules, 2025):

Assays:
ALR2 enzyme [1] = biological target: T1, ALR2 enzyme (Homo sapiens, UniProt P15121); assay: ALR2 activity assay kit (ab273276), inhibition; type: biochemical;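 for relative ALR2 inhibition: inhibition calculated from the rate of NADPH cofactor consumption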
T1 construct: purchased ab273276
Experimental: The obtained dose–response curve had concentrations of 10 μM, 5 μM, 500 nM, 50 nM, and 5 nM.

FRAP assay = assay: FRAP assay
Experimental: (§1) All synthesized compounds were evaluated at 30 μM, 50 μM, 70 μM, 90 μM, and 110 μM under two of the most widely used methods in research to directly measure the antioxidant and anti-radical intrinsic capacity, FRAP, and ABTS assay, which were validated by a dose–response curve of 5-ASA as a reference. In the same way, these tests were carried out in triplicate using an assay kit (from Pharmaceutical and Biotechnological Innovation-Services) according to the manufacturer’s instructions.

ABTS assay = assay: ABTS assay
Experimental: as §1

male Wistar rat = assay: Acute oral toxicity, Up and Down procedure (OECD 425); type: in vivo; set-up: Heart weight / IWA (initial weight of animals) / FWA (final weight of animals) / Spleen weight / Liver weight / Intestine weight / Stomach weight / Kidney weight: unit not given here; details: for FWA (final weight of animals): after 14 days; for Heart weight / Intestine weight / Kidney weight / Liver weight / Spleen weight / Stomach weight: necropsy; for toxicity category (OECD): maximum dose 1250 mg/Kg oral
Experimental: All synthesized compounds (8c, 8d, and 12d as a racemic mixture) were suspended in 2% Tween 80 in water and administered orally by an esophageal cannula following the “Up and Down” methodology. Nevertheless, compounds could not be solubilized in the desired volume to complete the highest dose (1750 mg/Kg), so the toxicity test was performed with a maximum dose of 1250 mg/Kg. Even so, the values obtained indicate that these compounds are classified within toxicity category 4 according to the guidelines established by the Organization for Economic Co-operation and Development (OECD).
The “Up and Down” procedure of OECD Guideline 425 was used to estimate the LD50 value of synthesized compounds. Briefly, a dose of 175 mg/Kg was administered to a male Wistar rat, which was monitored continuously for 48 h. As the animal survived, a second animal received a dose of 550 mg/Kg, and, as it survived, a third animal received an increasing dose of 1750 mg/Kg. Finally, two other rats were administered the same dose. All animals were kept under observation for 14 days, and 24 h later, they were taken to the humane endpoint for macroscopic examination of organs and tissues. Finally, the LD50 value of the compounds was estimated to determine their degree of toxicity and classified based on the GHS of Classification and Labeling of Chemicals.

ALR2 enzyme [2] = biological target: T1, ALR2 enzyme; assay: ALR2 activity assay kit (ab273276), inhibition; type: biochemical; details: Inhibitor concentration
[3] = Inhibitor concentration 5000 nm
[4] = Inhibitor concentration 10000 nm

SMILES | relative ALR2 inhibition (ALR2 enzyme [1]; Inhibitor concentration 5 nm) | relative ALR2 inhibition (ALR2 enzyme [1]; Inhibitor concentration 50 nm) | relative ALR2 inhibition (ALR2 enzyme [1]; Inhibitor concentration 500 nm) | relative ALR2 inhibition (ALR2 enzyme [1]; [3]) | relative ALR2 inhibition (ALR2 enzyme [1]; [4]) | Percentage reduction of ferric ion to ferrous ion (FRAP) (FRAP assay; 30 µM) | Percentage reduction of ferric ion to ferrous ion (FRAP) (FRAP assay; 50 µM) | Percentage reduction of ferric ion to ferrous ion (FRAP) (FRAP assay; 70 µM) | Percentage reduction of ferric ion to ferrous ion (FRAP) (FRAP assay; 90 µM) | Percentage reduction of radical cation ABTS (ABTS assay; 30 µM) | Percentage reduction of radical cation ABTS (ABTS assay; 50 µM) | Percentage reduction of radical cation ABTS (ABTS assay; 70 µM) | Percentage reduction of radical cation ABTS (ABTS assay; 90 µM) | Percentage reduction of radical cation ABTS (ABTS assay; 110 µM) | FWA (final weight of animals) (male Wistar rat; 1250 mg/Kg oral, mean ± SEM) | Heart weight (male Wistar rat; 1250 mg/Kg oral, mean ± SEM) | Intestine weight (male Wistar rat; 1250 mg/Kg oral, mean ± SEM) | Kidney weight (male Wistar rat; 1250 mg/Kg oral, mean ± SEM) | Liver weight (male Wistar rat; 1250 mg/Kg oral, mean ± SEM) | relative ALR2 inhibition (ALR2 enzyme [2]) | also measured
CNC(=O)C(Cc1ccccc1)N/C(=N\c1nc2ccccc2s1)SC (racemic) [12d, Methyl (RS, E)-N’-(benzo[d]thiazol-2-yl)-N-(1-(methylamino)-1-oxo-3-phenylpropan-2-yl)carbamimidothioate] | 29.534% | 32.532% | 33.993% | 48.448% | 86.455% | 0.19% | 0.20% | 0.18% | 0.20% | -3.4% | -3.7% | -2.3% | -3.1% | -1.9% | 309.67 ± 4.67 | 1.23 ±0.13 | 29.10 ± 0.50 | 2.87 ± 0.067 | 19.33 ± 0.03 | 32.814% | IWA (initial weight of animals) (male Wistar rat; 1250 mg/Kg oral, mean ± SEM): 208.47 ± 6.47; Spleen weight (male Wistar rat; 1250 mg/Kg oral, mean ± SEM): 0.83 ± 0.03; Stomach weight (male Wistar rat; 1250 mg/Kg oral, mean ± SEM): 1.53 ± 0.07; toxicity category (OECD) (male Wistar rat): 4
COC(=O)[C@@H](N/C(=N\c1nc2ccccc2s1)SC)c1ccccc1 [8c, Methyl (S,E)-2-(((benzo[d]thiazol-2-ylimino)(methylthio)methyl)amino)-2-phenylacetate] | 82.945% | 85.158% | 68.371% | 53.000% | – | 13.2% | 14.4% | 15.5% | 19.6% | -3.5% | -3.9% | -3.8% | -2.9% | -2.8% | 204.37 ± 1.47 | 1.07 ± 0.17 | 30.20 ± 1.50 | 2.57 ± 0.27 | 18.87 ± 1.47 | 90.000% | concentrations at which ALR2 was inhibited (ALR2 enzyme [1]): below 10 µM; concentration dependence of ALR2 inhibition (IC50 not calculable) (ALR2 enzyme [1]; 10 μM to 5 nM): did not show a concentration-dependent response; Percentage reduction of ferric ion to ferrous ion (FRAP) (FRAP assay; 110 µM): 20.2%; Spleen weight (male Wistar rat; 1250 mg/Kg oral, mean ± SEM): 0.73 ± 0.03; Stomach weight (male Wistar rat; 1250 mg/Kg oral, mean ± SEM): 1.57 ± 0.07; toxicity category (OECD) (male Wistar rat): 4
CC(/C=C1\SC(=S)N(CC(=O)O)C1=O)=C\c1ccccc1 [Epa, epalrestat, reference compound] | 5.000% | 5.288% | 12.513% | 58.372% | 100.000% | – | – | – | – | – | – | – | – | – | – | – | – | – | – | 3.000% | –
